# In paper PMC4601567 (Steroids, 2014):
# Molecular target: T1, full-length recombinant rat vitamin D receptor (VDR) (Rattus norvegicus, UniProt P13053)
# T1 sequence (P13053 1-423): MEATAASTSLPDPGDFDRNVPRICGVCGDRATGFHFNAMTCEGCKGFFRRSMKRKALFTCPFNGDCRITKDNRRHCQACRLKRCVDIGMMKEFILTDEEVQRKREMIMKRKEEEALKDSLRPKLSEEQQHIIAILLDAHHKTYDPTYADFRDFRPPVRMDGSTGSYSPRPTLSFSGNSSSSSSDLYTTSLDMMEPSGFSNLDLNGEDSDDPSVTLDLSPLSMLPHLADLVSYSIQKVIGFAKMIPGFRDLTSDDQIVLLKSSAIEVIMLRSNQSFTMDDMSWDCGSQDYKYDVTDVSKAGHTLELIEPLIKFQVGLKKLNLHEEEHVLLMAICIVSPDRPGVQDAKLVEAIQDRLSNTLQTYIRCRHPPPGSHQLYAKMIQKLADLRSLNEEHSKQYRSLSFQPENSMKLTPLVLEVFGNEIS
# Experiment: competitive radioligand displacement
# Format: binding
row,SMILES,Ki [pM]
1,"C=C1[C@H](O)CC(=C/C=C2\CCC[C@]3(C)[C@@H]([C@H](C)/C=C/C[C@@H](C)O)CC[C@@H]23)C[C@H]1O [8a, (20R,25R)-2-Methylene-19,26-dinor-22-(E)-ene-1α,25-dihydroxyvitamin D3]",90
2,"C=C1[C@H](O)CC(=C/C=C2\CCC[C@]3(C)[C@@H]([C@H](C)/C=C/C[C@H](C)O)CC[C@@H]23)C[C@H]1O [8b, (20R,25S)-2-Methylene-19,26-dinor-22-(E)-ene-1α,25-dihydroxyvitamin D3]",300
3,"C=C1[C@H](O)CC(=C/C=C2\CCC[C@]3(C)[C@@H]([C@@H](C)/C=C/C[C@@H](C)O)CC[C@@H]23)C[C@H]1O [9a, (20S,25R)-2-Methylene-19,26-dinor-22-(E)-ene-1α,25-dihydroxyvitamin D3]",80
4,"C=C1[C@H](O)CC(=C/C=C2\CCC[C@]3(C)[C@@H]([C@@H](C)/C=C/C[C@H](C)O)CC[C@@H]23)C[C@H]1O [9b, (20S,25S)-2-Methylene-19,26-dinor-22-(E)-ene-1α,25-dihydroxyvitamin D3]",200

# The remaining lines, values ahead:
row,Ki [pM],SMILES
1,100,"C[C@H](/C=C/[C@H](C)C(C)(C)O)[C@H]1CC[C@H]2/C(=C/C=C3C[C@@H](O)C[C@H](O)C3)CCC[C@]12C [compound 2, 19-Nor-1α,25-dihydroxyvitaminD2 (Zemplar)]"
2,60,"C=C1[C@H](O)CC(=C/C=C2\CCC[C@]3(C)[C@@H]([C@H](C)/C=C/CC(C)(C)O)CC[C@@H]23)C[C@H]1O [compound 6, 2-Methylene-19-nor-22(E)-ene-1α,25-dihydroxyvitamin D3]"
